# In US7326727B2, “Furanthiazole derivatives as heparanase inhibitors” (Oxford Glycosciences (UK) Ltd., priority 2002, dated 2008):
# Experiments:
# human heparanase = target: T1, human heparanase (Homo sapiens, UniProt Q9Y251); test: Heparanase assay (bFGF binding to heparan sulphate, 96-well plate); format: biochemical; conditions: 2 h at 37° C., pH 5.5, read-out: Inhibition of Heparanase (IC50)
# T1 sequence (Q9Y251 158-543 limits assumed): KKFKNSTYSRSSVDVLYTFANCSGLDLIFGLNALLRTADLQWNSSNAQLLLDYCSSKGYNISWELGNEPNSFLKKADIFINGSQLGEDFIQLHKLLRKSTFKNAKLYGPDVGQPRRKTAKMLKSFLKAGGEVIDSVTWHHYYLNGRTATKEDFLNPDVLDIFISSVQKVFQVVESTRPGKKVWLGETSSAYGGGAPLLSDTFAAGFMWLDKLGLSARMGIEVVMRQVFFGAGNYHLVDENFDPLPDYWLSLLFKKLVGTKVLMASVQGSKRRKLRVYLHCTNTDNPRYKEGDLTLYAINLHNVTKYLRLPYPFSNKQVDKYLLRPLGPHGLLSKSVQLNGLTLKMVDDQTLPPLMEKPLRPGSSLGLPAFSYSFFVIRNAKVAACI
# T1 sequence (Q9Y251 36-109 limits assumed): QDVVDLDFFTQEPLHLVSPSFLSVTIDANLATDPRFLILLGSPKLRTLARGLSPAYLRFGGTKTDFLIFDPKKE
# Protocol: Heparanase assay: The assay is based upon the use of the specific binding of basic fibroblast growth factor (bFGF) to heparan sulphate. Heparan sulphate can be detected via binding of bFGF using a horse radish peroxidase-conjugated bFGF antibody.
# Nunc Maxisorp 96-well plates are coated for 16 h at RT with 100 μl/well 0.04 mg/ml heparan sulphate in PBS. The wells are then aspirated and blocked for 1 h with 200 μl/well 1% BSA-PBS. Following five washes with 0.01% BSA, 0.05% Tween20 PBS (wash buffer), 100 μl of recombinant human basic FGF (90 ng/ml in 0.1% BSA/PBS) is added per well and the plate is incubated at room temperature for 1 h.
# After a further five washes with the wash buffer, 10 μl of test compound (in 10% DMSO) and 90 μl of human heparanase in 100 mM Sodium acetate, 5 mM CaCl2, pH 5.5 are added to each well and the plate incubated for 2 h at 37° C. The wells are washed again with wash buffer and 100 μl of bFGF antibody-horse radish peroxidase conjugate added. The plate is incubated at room temperature for 1 h and washed again five times with wash buffer. 100 μl of TMB peroxidase substrate is added and the colour allowed to develop for 10 min. The reaction is stopped with 50 μl 1M H2SO4 and the colour read at 450 nm on a plate reader.
# human endothelial cells = test: Angiogenesis assay (AngioKit, tubule formation by PECAM-1 staining); format: cell-based; conditions: Endothelial cell, 264 h, AngioKit co-culture, tubule formation on day 11, PECAM-1 staining relative to untreated control
# Text: Angiogenesis Assay: A commercial angiogenesis assay for analysing the angiogenic or anti-angiogenic properties of test compounds (AngioKit catalogue no. ZHA-1000, TCS CellWorks Ltd, Buckingham, U.K) was used. In this assay, human endothelial cells were co-cultured with other human cells in a specifically designed medium. The endothelial cells initially form small islands within the culture matrix. They subsequently proliferate and then enter a migratory phase during which they move through the matrix to form threadlike tubule structures. These gradually join up (by 12-14 days) to form networks of […] tubules which closely resemble a capillary bed structure. These tubules stain positive for von Willebrand's Factor, Platelet Endothelial Cell Adhesion Molecule-1 (PECAM-1 or CD31) and Intercellular Adhesion Molecule-2 (ICAM-2).
# The assay is supplied as growing cultures at the earliest stage of tubule formation in a 24 well plate format. It is designed so that test compounds and conditioned media can be added to the cultures within individual wells. The resulting effect on tubule formation can then be monitored. Positive and negative test agents are provided in the kit, e.g. Vascular Endothelial Growth Factor (VEGF) and sumarin. All reagents were included as part of the kit and the assay was performed according to the protocol supplied by TCS CellWorks Ltd. Briefly, on day 1, fresh growth medium, medium plus control agent or medium plus test compound was added to the cells and the cultures were incubated at 37° C., 5% CO2. […] The specified medium was changed at days 4, 7 and 9 and the cells were monitored for growth. On day 11, the cells were washed with Dulbecco's Phosphate-Buffered Saline (PBS) and fixed using 70% ethanol (−20° C.) for 30 min at room temperature. After fixing, the cells were washed and treated with blocking buffer, 1% BSA in PBS. The cells were stained for PECAM-1 on the same day, following standard immunohistochemistry procedures well known to those skilled in the art, using mouse anti-human CD31 as the primary antibody and a goat anti-mouse IgG alkaline […] conjugate. Tubule formation was quantitatively assessed by measuring PECAM-1 positive staining using the image analysis program “Matrox inspector” to evaluate the percentage tubule staining relative to an untreated control.
Compound,IC50 (human heparanase),IC50 (human endothelial cells)
"2-[4-[5-[2-Chloro-4-[3-(3,5-bistrifluoromethyl)phenylacryloylamino]phenyl]furan-2-yl]-1,3-thiazol-2-yl]acetic acid [Example 7]",400 nM,–
O=C(O)Cc1nc(-c2ccc(-c3ccc(NC(=O)c4ccc(OC(F)(F)F)cc4)cc3)o2)cs1 [Example 4],–,200 nM
"O=C(O)Cc1nc(-c2ccc(-c3ccc(NC(=O)/C=C/c4ccc(Br)cc4)cc3Cl)o2)cs1 [Example 5, 2-[4-[5-[2-Chloro-4-[3-(4-bromo)phenylacryloylamino]phenyl]furan-2-yl]-1,3-thiazol-2-yl]acetic acid]",–,1000 nM
"O=C(O)Cc1nc(-c2ccc(-c3ccc(NC(=O)/C=C/c4ccc(Cl)cc4Cl)cc3Cl)o2)cs1 [Example 6, 2-[4-[5-[2-Chloro-4-[3-(2,4-dichloro)phenylacryloylamino]phenyl]furan-2-yl]1,3-thiazol-2-yl]acetic acid]",–,500 nM
"O=C(O)Cc1nc(-c2ccc(-c3ccc(NC(=O)C=Cc4ccccc4)cc3Cl)o2)cs1 [Example 8, 2-[4-[5-[2-Chloro-4-(3-phenylacryloylamino)phenyl]furan-2-yl]-1,3-thiazol-2-yl]acetic acid]",–,15000 nM
"O=C(O)Cc1nc(-c2ccc(-c3ccc(NC(=O)c4cc5ccccc5s4)cc3Cl)o2)cs1 [Example 11, 2-[4-[5-[2-Chloro-4-[(benzothiophene-2-carbonyl)amino]phenyl]furan-2-yl]-1,3-thiazol-2-yl]acetic acid]",400 nM,20000 nM
"O=C(O)Cc1nc(-c2ccc(-c3ccc(NC(=O)c4ccc(Cl)c(Cl)c4)cc3Cl)o2)cs1 [Example 18, 2-[4-[5-[2-Chloro-4-[(3,4-dichlorophenylcarbonyl)amino]phenyl]furan-2-yl]-1,3-thiazol-2-yl]acetic acid]",–,10000 nM
"COc1cccc(C(=O)Nc2ccc(-c3ccc(-c4csc(CC(=O)O)n4)o3)c(Cl)c2)c1 [Example 21, 2-[4-[5-[2-Chloro-4-[(3-methoxyphenylcarbonyl)amino]phenyl]furan-2-yl]-1,3-thiazol-2-yl]acetic acid]",7000 nM,–
"O=C(O)Cc1nc(-c2ccc(-c3ccc(NC(=O)c4ccc(OC(F)(F)F)cc4)cc3Cl)o2)cs1 [Example 22, 2-[4-[5-[2-Chloro-4-[(4-trifluoromethoxyphenylcarbonyl)amino]phenyl]furan-2-yl]-1,3-thiazol-2-yl]acetic acid]",–,500 nM
